Where two headings read alike, the source gives them in different places.
What was measured:
[1] = Stability of labeling substances and substrates in 0.1 M HEPES at 37° C., cyclic voltammetric measurement; format: physicochemical; conditions: for relative value of height of oxidation peak in voltammogram of free molecule (0 hours = 100%): 1.0 mM in 0.1 M HEPES pH 7.8, 37° C., light-shielded; for change of detected value in 2 hours after preparation: 0.1 M HEPES pH 7.8, 37° C.
Protocol: The labeling substances (pAP, MPDD, and DMPD) and the substrates for measurement (LGR-pAP, LGR-MPDD, LGR-DMPD) were dissolved into 0.1 M HEPES (pH 7.8) and prepared to be 1 mM, and were left to stand for 1 to 24 hours in an incubator at 37° C. Thereafter, a test was performed according to the following procedures.
As an electrochemical measurement method, cyclic voltammetry and a potential step chronoamperometric method were used. As a measuring device, a working electrode, a reference electrode, and a counter electrode, those described in <Measurement Conditions> below were used. In each measurement, the working electrode, the reference electrode, and the counter electrode were inserted in a solution, and respectively connected to connectors of a potentiostat for a working electrode, a reference electrode, and a counter electrode. After each measurement, the electrode surface of the working electrode was polished with […] polishing alumina, and cleaned with ultrapure water. In the cyclic voltammetric measurement, potential scanning was performed by setting an initial potential and a finish potential to 0 V, a first turnover potential to 0.4 V (0.6 V for LGR-pAP and LGR-DMPD, 0.7 V for LGR-MPDD), and a second turnover potential to −0.2 V, and the current was monitored. In the potential step chronoamperometric measurement, after 0.0 V was applied to the working electrode for 10 seconds, the potential was momentarily changed to 0.3 V, and the current was monitored for 35 seconds.
50 ml of test solutions (1.0 mM) of the respective substrates (LGR-pAP, LGR-MPDD, LGR-DMPD) and free molecules (pAP, MPDD, DMPD) were prepared by using 0.1 M HEPES (pH=7.8), put in a disposable 50 ml centrifuge tube (manufactured by IWAKI), and left to stand at 37° C. under light-shielded conditions. When a predetermined time (0.5 h, 1 h, 2 h, 4 h, and 24 h) elapsed, 5 ml was sampled from the test solution and subjected to cyclic voltammetric measurement. MPDD was measured when 6 hours and 8 hours elapsed as well. By using a test solution just after preparation, a measurement at a predetermined time of 0 hours was performed.

[2] = test system: Limulus reagent Endospecy ES-24S; assay: Limulus test (2): endotoxin measurement by voltammetric method using labeled substrates; format: biochemical; conditions: substrate for measurement 0.5 mM
Protocol: Limulus tests using the substrates for measurement acquired in <Reference Example 1> described above were performed, and measurements of endotoxin were performed by a voltammetric method. The test procedures are shown below.
The same conditions as those described in <Limulus Reaction> of <Example 2> described above were applied except that a cyclic voltammetric measurement was performed instead of the chronoamperometric measurement.
The same conditions as described in <Measurement Conditions> of <Example 1> above were applied.

[3] = Evaluation of quantitative performance: cyclic voltammetry and chronoamperometry of substrate / free molecule mixed solutions; format: physicochemical; conditions: mixed solution of substrate and free molecule, 0.1 M HEPES pH 7.8, vs. Ag/AgCl
Source text: As a result of performing a cyclic voltammetric measurement in which the mixture ratio of a substrate and free molecule (labeling substance) was varied in stages, in a voltammogram of a mixed solution of LGR-pAP and pAP, two oxidation peaks at 0.15 V and 0.49 V were confirmed. From individual voltammograms of a substrate molecule and a free molecule, the peak near 0.49 V is considered to be derived from oxidation of LGR-pAP, and the peak near 0.15 V is considered to be derived from oxidation of pAP. Similarly, from a voltammogram of a mixed solution of LGR-DMPD and DMPD, an oxidation peak derived from LGR-DMPD was confirmed near 0.45V, and an oxidation peak derived from DMPD was confirmed near 0.19 V. Further, from a voltammogram of a mixed solution of LGR-MPDD and MPDD, an oxidation peak derived from LGR-MPDD was confirmed near 0.46 V, and an oxidation peak derived from MPDD was confirmed near 0.14 V. Further, when using any substrate, an oxidation peak current value of free molecules increased as the percentage of a free molecule increased. From these facts, it was considered that a concentration of free molecules in each mixed solution could be amperometrically quantified at a potential of 0.3 V vs. Ag/AgCl. Next, in each mixed solution, chronoamperometry was performed. […]
As an electrochemical measurement method, cyclic voltammetry and a potential step chronoamperometric method were used. […] In the cyclic voltammetric measurement, potential scanning was performed by setting an initial potential and a finish potential to 0 V, a first turnover potential to 0.4 V (0.6 V for LGR-pAP and LGR-DMPD, 0.7 V for LGR-MPDD), and a second turnover potential to −0.2 V, and the current was monitored. In the potential step chronoamperometric measurement, after 0.0 V was applied to the working electrode for 10 seconds, the potential was momentarily changed to 0.3 V, and the current was monitored for 35 seconds. […]

[4] = test system: Limulus reagent Endospecy ES-24S; conditions: FIG. 8 of Patent Literature 1; cited from earlier work
[5] = 1 mM; FIG. 4 of Patent Literature 1; cited from earlier work
[6] = 0 hours (just after preparation)

| Structure (SMILES) | relative value of height of oxidation peak in voltammogram of free molecule (0 hours = 100%) [1, 6] [%] | relative value of height of oxidation peak in voltammogram of free molecule (0 hours = 100%) ([1]; 0.5 h) [%] | relative value of height of oxidation peak in voltammogram of free molecule (0 hours = 100%) ([1]; 1 h) [%] | relative value of height of oxidation peak in voltammogram of free molecule (0 hours = 100%) ([1]; 2 h) [%] | change of detected value in 2 hours after preparation [1] | Measured value B: maximum value of oxidation peak current value in Limulus test with substrate (labeling substance bonded to LGR) [2] [μA] | oxidation peak potential in cyclic voltammogram [3] [V] | Measured value B: maximum value of oxidation peak current value in Limulus test with substrate (labeling substance bonded to LGR) [4] [μA] | oxidation peak current value of labeling substance itself [5] |
| --- | --- | --- | --- | --- | --- | --- | --- | --- | --- |
| CN(C)c1ccc(N)cc1 [DMPD, N, N-dimethyl-p-phenylenediamine] | 100.0 | 95.3 | 94.3 | 84.5 | showed a tendency to successively decrease | 0.31 | ~0.19 |  |  |
| COc1ccc(N)cc1 [pMA, para methoxyaniline] |  |  |  |  |  |  |  | 0.28 | approximately 3.0 μA |
| Nc1ccc(O)cc1 [pAP, P-aminophenol, reference compound] | 100.0 | 94.2 | 95.0 | 83.0 | showed a tendency to successively decrease |  | ~0.15 |  |  |
| CNc1ccc(N)cc1 [MPDD, N-methyl-p-phenylenediamine] | 100.0 | 102.4 | 102.3 | 101.0 | no decrease | 0.60 | ~0.14 |  |  |

Source: patent US10883963B2, “Electrochemical measurement using phenylenediamine derivative” (SEIKAGAKU CORPORATION, priority 2016, dated 2021)
